IC50 and EC50 data for eight compounds are collected here from US10344026B2, “Compositions and methods of targeting mutant K-ras” (NANTBIO, INC., priority 2017, dated 2019).

Holding throughout (assay type): cell-based
The target in test [1] is T1, K-Ras G12D (Homo sapiens, UniProt P01116, G12D).
T1 construct: expressed in transfected cells; host or cells: 293H cells
As to the kind of experiment: G-LISA Ras activation, 293H cells transfected with G12D mutant. Particulars: compound 1 hour. An outline of the steps: (§1)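 Cells: 293H, Ras plasmid transfection (5 μg). Cpd 3.125-25 μM, 1 h; WT cells + EGF 100 ng/ml, 2 min. Lysed on ice; active Ras by G-LISA.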

Test [2] deals with HCT116-G31D. As to the kind of experiment: Viability assay (CellTiterBlue, 72 hr) HCT116. The settings on record: Homo sapiens, HCT-116, GI50, CellTiterBlue, HCT116 K-Ras G13D, read-out: 72 hr Cell Viability HCT116 (G13D). An outline of the steps:
(§2)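 GI50 calculation uses a window set by DMSO-treated wells (100% viability) and 100 uM tamoxifen (0%). Cells (1000/well) sit 18 hr at 37 °C, receive compound for 72 hr in 0.5% DMSO, then get CellTiterBlue for 3 hr before reading at Ex550/Em590.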

Test [3] relates to phospho-Akt in A375 (Wild-type). Description: In-Cell Western phospho-Akt, A375. The settings on record: Homo sapiens, A-375, 1 h; A375, one hour treatment; read-out: In-Cell Western A375 (Wild-type) Akt (P). An outline of the steps: (§3)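 EC50 values come from immunofluorescence quantitation of phosphorylated ERK or Akt in fixed cells exposed to compound for one hour at 0.5% DMSO. Maximal inhibition is defined by 1 uM BEZ235 for Akt and 1 uM MEK Inhibitor II for ERK.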

Test [4] relates to phospho-ERK in Panc10.05 (G12D). Description: In-Cell Western phospho-ERK, Panc10.05. The settings on record: Homo sapiens, Panc1005, 1 h; Panc10.05, one hour treatment; read-out: In-Cell Western Panc10.05 (G12D) Erk (P). An outline of the steps: as §3
The target in test [5] is T2, wild type K-Ras (Homo sapiens, UniProt P01116).
T2 construct: expressed in transfected cells; host or cells: 293H cells
As to the kind of experiment: G-LISA Ras activation, 293H cells transfected with Ras wild-type, EGF stimulated. Particulars: compound 1 hour, then 100 ng/ml EGF 2 minutes. In outline:
as §1

Test [6] concerns phospho-Akt in Panc10.05 (G12D). As to the kind of experiment: In-Cell Western phospho-Akt, Panc10.05. The settings on record: Homo sapiens, Panc1005, 1 h; Panc10.05, one hour treatment; read-out: In-Cell Western Panc10.05 (G12D) Akt (P). In outline:
as §3

Test [7] concerns A375 (K-Ras wild type cell line). As to the kind of experiment: Viability assay (CellTiterBlue, 72 hr) A375. Particulars: Homo sapiens, A-375, GI50, CellTiterBlue. An outline of the steps: as §2
For test [8], the system named is phospho-ERK in A375 (Wild-type). As to the kind of experiment: In-Cell Western phospho-ERK, A375. Particulars: Homo sapiens, A-375, 1 h; A375, one hour treatment; read-out: In-Cell Western A375 (Wild-type) Erk (P). An outline of the steps:
as §3

Test [9] relates to Ishikawa (K-Ras wild type cell line). Description: Viability assay (CellTiterBlue, 72 hr) Ishikawa. Particulars: Homo sapiens, GI50, CellTiterBlue, Ishikawa K-Ras wild-type. An outline of the steps:
as §2
On the technique in general: Alamar Blue is a resazurin reagent that responds to reducing activity.

Test [10] deals with phospho-ERK in HCC827 (Wild-type). As to the kind of experiment: In-Cell Western phospho-ERK, HCC827. The settings on record: Homo sapiens, 1 h; HCC827, one hour treatment; read-out: In-Cell Western HCC827 (Wild-type) Erk (P). An outline of the steps: as §3
Test [11] deals with Panc10.05-G12D. Description: Viability assay (CellTiterBlue, 72 hr) Panc10.05. Particulars: Homo sapiens, Panc1005, GI50, CellTiterBlue, Panc10.05 K-Ras G12D, read-out: 72 hr Cell Viability Panc10.05 (G12D). In outline: as §2
The subject of test [12] is Panc1-G12D. As to the kind of experiment: Viability assay (CellTiterBlue, 72 hr) Panc1. The settings on record: Homo sapiens, PANC-1, GI50, CellTiterBlue, Panc1 K-Ras G12D, read-out: 72 hr Cell Viability Panc1 (G12D). An outline of the steps: as §2
The subject of test [13] is U87-MG (K-Ras wild type cell line). As to the kind of experiment: Viability assay (CellTiterBlue, 72 hr) U87-MG. Particulars: Homo sapiens, U-87 MG, GI50, CellTiterBlue, U87-MG K-Ras wild-type. An outline of the steps:
as §2

The test system of test [14] is phospho-Akt in Panc1 (G12D). Description: In-Cell Western phospho-Akt, Panc1. The settings on record: Homo sapiens, PANC-1, 1 h; Panc1, one hour treatment; read-out: In-Cell Western Panc1 (G12D) Akt (P). In outline: as §3
Test [15] has as its system HCC827 (K-Ras wild type cell line). Description: Viability assay (CellTiterBlue, 72 hr) HCC827. The settings on record: Homo sapiens, GI50, CellTiterBlue, HCC827 K-Ras wild-type. An outline of the steps:
as §2

For test [16], the system named is phospho-ERK in Panc1 (G12D). As to the kind of experiment: In-Cell Western phospho-ERK, Panc1. The settings on record: Homo sapiens, PANC-1, 1 h; Panc1, one hour treatment; read-out: In-Cell Western Panc1 (G12D) Erk (P). In outline: as §3

Structures are written as SMILES. Some results are limits rather than exact numbers.

T2 sequence (P01116 whole entry): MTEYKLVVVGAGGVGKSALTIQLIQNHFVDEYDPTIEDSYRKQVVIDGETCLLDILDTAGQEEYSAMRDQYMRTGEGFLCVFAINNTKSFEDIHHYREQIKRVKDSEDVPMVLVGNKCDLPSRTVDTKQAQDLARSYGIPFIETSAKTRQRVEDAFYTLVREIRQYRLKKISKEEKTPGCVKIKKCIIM
T1 sequence (P01116 whole entry G12D): as the sequence (P01116 whole entry) above, with G12D counted along it

Turning to `CCc1nc(C)c(C(=O)Nc2nc(-c3ccc4c(c3)CCC(=O)N4Cc3cccnc3)cs2)s1` [Compound 106, 2-ethyl-4-methyl-N-(4-(2-oxo-1-(pyridin-3-ylmethyl)-1,2,3,4-tetrahydroquinoinolin-6-yl)thiazol-2-yl)thiazole-5-carboxamide], the IC50 is 4.4 µM in test [1]; 6 µM in test [2]; 9.6 µM in [5]; 22 µM in test [7]; more than 25 µM in test [9]; 3 µM in [11]. The IC50 in [12] was 12 µM; in test [13], more than 25 µM; in test [15] it was more than 25 µM. Further, the EC50 in test [3] is more than 25 µM; in test [4] it was 10 µM; in [6], more than 25 µM; in test [8], 20 µM; in test [10], 7 µM; in test [14], 25 µM. Further, the EC50 in test [16] stood at 5 µM.

Regarding `Cc1nc(C(C)C)sc1C(=O)Nc1nc(-c2ccc3c(c2)CCC(=O)N3Cc2cccnc2)cs1` [Compound 107, 2-isopropyl-4-methyl-N-(4-(2-oxo-1-(pyridin-3-ylmethyl)-1,2,3,4-tetrahydroquinolin-6-yl)thiazol-2-yl)thiazole-5-carboxamide], the IC50 was 6.6 µM in [1]; 6 µM in test [2]; 9.7 µM in test [5]; 19 µM in test [7]; more than 25 µM in [9]; 2 µM in test [11]. The IC50 in test [12], in test [13] and in [15] was more than 25 µM throughout. Further, the EC50 in test [3] is more than 25 µM; in test [4], 10 µM; in test [6] it was more than 25 µM; in [8], 16 µM; in [10], 6 µM; in [14] it was more than 25 µM. Further, the EC50 in test [16] worked out at 6 µM.

Regarding `Cc1nn(C)c(C)c1C(=O)Nc1nc(-c2ccc3c(c2)CCC(=O)N3Cc2cccnc2)cs1` [Compound 113, 1,3,5-trimethyl-N-(4-(2-oxo-1-(pyridin-3-ylmethyl)-1,2,3,4-tetrahydroquinolin-6-yl)thiazol-2-yl)-1H-pyrazole-4-carboxamide], the IC50 is 6.3 µM in test [1]; 11 µM in test [2]; 9.6 µM in [5]; 14 µM in test [7]; more than 25 µM in test [9]; 2 µM in [11]. For the same compound, the IC50 in test [12] was 19 µM; in [13], more than 25 µM; in [15], more than 25 µM. Moreover, the EC50 in test [3] was more than 25 µM; in test [4] it was 7 µM; in test [6], more than 25 µM; in [8], 13 µM; in test [10] it was 6 µM; in test [14], more than 25 µM. Moreover, the EC50 in test [16] was found to be 2 µM.

Take `Cc1nc(C)c(C(=O)Nc2nc(-c3ccc4c(c3)CCC(=O)N4C3CCCC3)cs2)o1` [Compound 69, N-(4-(1-cyclopentyl-2-oxo-1,2,3,4-tetrahydroquinolin-6-yl)thiazol-2-yl)-2,4-dimethyloxazole-5-carboxamide]: the IC50 in [1] is 8.1 µM; in test [2], 2 µM; in [5], 18.6 µM; in [7] it was more than 25 µM; in test [9] it was more than 25 µM; in [11] it was 3 µM. Moreover, the IC50 in test [12] was 7 µM; in test [13], more than 25 µM; in [15], 2 µM. For the same compound, the EC50 worked out at 2 µM in [3]; 2 µM in [4]; 17 µM in [6]; 3 µM in [8]; 5 µM in [10]; 6 µM in test [14]. In addition, the EC50 in test [16] is 8 µM.

Regarding `COc1cccc(CN2C(=O)CCc3cc(-c4csc(NC(=O)c5oc(C)nc5C)n4)ccc32)c1OC` [Compound 93, N-(4-(1-(2,3-dimethoxybenzyl)-2-oxo-1,2,3,4-tetrahydroquinolin-6-yl)thiazol-2-yl)-2,4-dimethyloxazole-5-carboxamide], the IC50 was 8.6 µM in [1]; 4 µM in [2]; 10 µM in [5]; more than 25 µM in test [7]; more than 25 µM in test [9]; 5 µM in [11]. Also, the figures for the IC50 in test [12], in test [13] and in [15] were 9 µM, more than 25 µM and more than 25 µM, respectively. In addition, the EC50 in test [3] is more than 25 µM; in test [4], 1.2 µM; in test [6] it was 15 µM; in test [8], more than 25 µM; in [10], more than 25 µM; in test [14], 6 µM. Moreover, the EC50 in [16] was determined as 8 µM.

Consider `COC(=O)CCN1C(=O)CCc2cc(-c3csc(NC(=O)c4oc(C)nc4C)n3)ccc21` [Compound 99, methyl 3-(6-(2-(2,4-dimethyloxazole-5-carboxamido)thiazol-4-yl)-2-oxo-3,4-dihydroquinoiolin-1 (2H)-yl)propanoate], for which the IC50 was 6.7 µM in test [1]; more than 25 µM in [2]; 10.2 µM in [5]; 6 µM in test [7]; 4 µM in [9]; 6 µM in test [11]. Besides, the figures for the IC50 in [12], in [13] and in test [15] were 6 µM, more than 25 µM and more than 25 µM, respectively. In addition, the EC50 in [3] is more than 25 µM; in test [4], 5 µM; in [6], 10 µM; in test [8], more than 25 µM; in [10] it was 5 µM; in test [14], more than 25 µM. In addition, the EC50 in test [16] was found to be 14 µM.

On to `COCCCN1C(=O)CCc2cc(-c3csc(NC(=O)c4oc(C)nc4C)n3)ccc21` [Compound 96, N-(4-(1-(3-methoxypropyl)-2-oxo-1,2,3,4-tetrahydroquinolin-6-yl)thiazol-2-yl)-2,4-dimethyloxazole-5-carboxamide], for which the IC50 is 5 µM in test [1]; 3 µM in test [2]; 12.1 µM in test [5]; more than 25 µM in test [7]; more than 25 µM in [9]; 3 µM in test [11]. Also, the IC50 in test [12] is 4 µM; in test [13] it was more than 25 µM; in test [15], 4 µM. The EC50 in [3] stood at 6 µM; in test [4], 1.1 µM; in [6], 9 µM; in test [8] it was 6 µM; in test [10] it was 7 µM; in [14], 4 µM. The EC50 in [16] amounted to 7 µM.

In the case of `COC(=O)CCCN1C(=O)CCc2cc(-c3csc(NC(=O)c4oc(C)nc4C)n3)ccc21` [Compound 100, methyl 4-(6-(2-(2,4-dimethyloxazole-5-carboxamido)thiazol-4-yl)-2-oxo-3,4-dihydroquinolin-1 (2H)-yl)butanoate], the IC50 in test [1] was 5.5 µM; in test [2], more than 25 µM; in test [5] it was 9.5 µM; in test [7], 4 µM; in test [9] it was 3 µM; in test [11], 5 µM. Also, the IC50 in [12] was 5 µM; in test [13] it was more than 25 µM; in test [15], more than 25 µM. For the same compound, the EC50 in [3] came to 5 µM; in test [4], 3 µM; in [6] it was 7 µM; in test [8] it was 4 µM; in test [10], 3 µM; in [14], 25 µM. Also, the EC50 in test [16] was determined as 17 µM.
